How the values were obtained:
Topo-1 = test system: Topo-1; design: method as in PMID 19495753; details: cited from earlier work
CYP2D6 = test system: CYP2D6; design: species or system human; details: in vivo
Method: Blood samples for pharmacogenomic analysis were collected and all samples anonymised for subsequent storage, assay and analysis. The impact on Cmax and AUC of genetic polymorphisms of CYP2D6, which is assumed to make some contribution to the hydroxylation of TP3076, but not TP3011, AOX1, which metabolises TP3076 to TP3011, and UGT1A1, which metabolises SN-38 to its glucuronide, but is not believed to influence TP300 metabolism were explored. The analysis was performed with the invader method or polymerase chain reaction (PCR)-invader method for single nucleotide polymorphisms (SNPs) of CYP2D6 and UGT1A1 *28 and with the long-PCR method for deletion of CYP2D6 and UGT1A1 gene. AOX1 SNPs were analysed by a direct sequencing method. Genomic DNAs were extracted from frozen peripheral blood of 31 subjects using an automated DNA extractor BioRobotMDx and commercial DNA purification kits (Qiagen). Quality and quantity of the DNAs were checked by the measurement of absorbencies at 260 nm and 280 nm. Primers were designed to amplify all the 35 exons of Aldehyde oxidese 1 gene (NCBI accession No. NM_001159) including some intronic flanking regions. […] The fragments obtained were purified using X-Terninator purification kit (Applied Biosystems) and analysed on an automated DNA sequencer (3730xl DNA Analyzer, Applied Biosystems). […]

[1] = test system: HCT-116 colorectal cancer cells; design: method as in PMID 19254843; details: HCT-116 colorectal cancer cells in vitro; cited from earlier work
UGT1A1 = details: human, in vivo
Method: (§1) Blood samples for pharmacogenomic analysis were collected and all samples anonymised for subsequent storage, assay and analysis. The impact on Cmax and AUC of genetic polymorphisms of CYP2D6, which is assumed to make some contribution to the hydroxylation of TP3076, but not TP3011, AOX1, which metabolises TP3076 to TP3011, and UGT1A1, which metabolises SN-38 to its glucuronide, but is not believed to influence TP300 metabolism were explored. The analysis was performed with the invader method or polymerase chain reaction (PCR)-invader method for single nucleotide polymorphisms (SNPs) of CYP2D6 and UGT1A1 *28 and with the long-PCR method for deletion of CYP2D6 and UGT1A1 gene. AOX1 SNPs were analysed by a direct sequencing method. Genomic DNAs were extracted from frozen peripheral blood of 31 subjects using an automated DNA extractor BioRobotMDx and commercial DNA purification kits (Qiagen). Quality and quantity of the DNAs were checked by the measurement of absorbencies at 260 nm and 280 nm. Primers were designed to amplify all the 35 exons of Aldehyde oxidese 1 gene (NCBI accession No. NM_001159) including some intronic flanking regions. The specificity of PCR conditions was confirmed by the agarose gel electrophoresis. Amplicons were prepared twice for every exons. The amplicons were subsequently treated with ExoSAP-IT (GE Healthcare) followed by the reactions with a cycle sequencing kit (BigDye Terminator v3.1, Applied Biosystems). The fragments obtained were purified using X-Terninator purification kit (Applied Biosystems) and analysed on an automated DNA sequencer (3730xl DNA Analyzer, Applied Biosystems). The resulted sequences were compared against the reference sequence using the variant reporter software (Applied Biosystems).

AOX1 = details: human, in vivo
Method: as §1

[2] = Plasma and urine pharmacokinetics after TP300 infusion (LC-MS/MS, non-compartmental); type: in vivo, human; details: for fe (urinary excretion ratio): urine up to 48 hours, mean
Method: Venous blood (3 mL) was taken into sodium heparin tubes containing 30 μL of 46% citric acid, centrifuged 1500g at 4°C for 10 min and 1 mol/L hydrochloric acid was added (1:10) to plasma from each subject at 10 time points during cycle 1 (pre dose, then 1, 1.25, 1.5, 2, 3, 5, 8, 24, 48 hours after the start of administration) and stored at −70°C. Samples were processed by extraction of protein using addition of organic solvent containing internal standards and assayed by LC-MS/MS with a robust, sensitive and validated method for the simultaneous determination of a novel topoisomerase 1 inhibitor CH0793076 (TP3076), the prodrug CH4556300 (TP300), and the active metabolite CH0793011 (TP3011). All plasma had been acidified during collection to avoid the pH-based degradation of TP300 and to shift the equilibria of TP3076 and TP3011 between the lactone and carboxylate forms towards the lactone forms. After the plasma proteins were precipitated with methanol:acetonitrile:HCl 1M (50:50:1, v:v:v) containing stable isotopic internal standards, the analytes were trapped on an Xterra MS C18 column (10×2.1 mm i.d., 5 μm) and separated on a Gemini C18 column (50×2.0 mm i.d., 5 μm) using column-switching liquid chromatography. Electrospray ionization in the positive-ion mode and multiple reaction monitoring were used to quantify the analytes with transitions m/z 587.2>441.2 for TP300, 459.1>415.2 for 3076, and 475.1>361.1 for 3011. The inter- and intra-day precisions were below 12%, and the accuracy was between −16% and 16% at the lower limit of quantitation (LLOQ) and between −11% and 14% at the other quality controls. The LLOQs of TP300, TP3076, and TP3011 were 0.8, 0.04, and 0.04 ng/mL, respectively.
Pharmacokinetic parameters derived from plasma concentration-time data of TP3076 or TP3011 by non-compartmental methods using WinNonlin (version 5.1; Pharsight Corp), included maximal plasma concentration (Cmax) and time of Cmax (Tmax), apparent plasma elimination half-life (t1/2), and the area under the curve (AUC). The urinary excretion ratio (fe) of TP3076 and TP3011 was calculated from the urinary concentration and volume up to 48 hours after administration, and the administration dose. The linearity of Cmax and AUC was determined with linear regression, analysis of variance and power model analysis. The sum of the AUCs of TP3076 and TP3011 was plotted against percentage (%) fall in nadir neutrophil count to explore the relationship between exposure and myelosuppression as a measure of anti-proliferative effect and a sigmoid Emax model fitted to the data: […]

[3] = design: method as in PMID 10873073; details: irinotecan 350 mg/m^2, 3-weekly dosing regimen; cited from earlier work
[4] = TP300 1 mg/m^2 1-hour i.v. infusion, N=3
[5] = TP300 2 mg/m^2 1-hour i.v. infusion, N=3
[6] = TP300 4 mg/m^2 1-hour i.v. infusion, N=3
[7] = TP300 6 mg/m^2 1-hour i.v. infusion, N=3
[8] = TP300 8 mg/m^2 1-hour i.v. infusion, N=3
[9] = TP300 10 mg/m^2 1-hour i.v. infusion, N=12
[10] = TP300 12 mg/m^2 1-hour i.v. infusion, N=4

SMILES | Topo-1 inhibition relative to SN38 (Topo-1) | exposure in CYP2D6 extensive metabolisers (CYP2D6) | IC50 [1] | difference in exposure (Cmax, AUC) among UGT1A1*28 genotypes (UGT1A1) | difference of exposure (Cmax, AUC) among AOX1 (c3404A > G) genotypes (AOX1) | fe (urinary excretion ratio) [2, 4] [%] | fe (urinary excretion ratio) [2, 5] [%] | fe (urinary excretion ratio) [2, 6] [%] | fe (urinary excretion ratio) [2, 7] [%] | fe (urinary excretion ratio) [2, 8] [%] | fe (urinary excretion ratio) [2, 9] [%] | fe (urinary excretion ratio) [2, 10] [%] | Urinary excretion ratios ([2]; human, in vivo) | dose dependence of Cmax and AUC ([2]; human, in vivo) | Tmax ([2]; human, in vivo, Tmax) [h] | half-life ([2]; human, in vivo, iv, t1/2) [h] | Tmax ([2]; human, in vivo, iv, tmax) [h] | Glucuronidated TP3076 (detection) ([2]; in vivo) | AUC of SN-38 at which DLTs occur [3] [µM·h]
CCCCCN1C(=O)Nc2cccc3nc4c(c1c23)Cn1c-4cc2c(c1=O)COC(=O)[C@]2(O)CC [TP3011] | equipotent | slight decrease | sub-nanomolar range | no apparent significant difference | no apparent significant difference | 0.792 | 0.739 | 0.796 | 0.593 | 0.594 | 1.10 | 1.99 | at most 6% | increased proportionately | 3 to 5 | 6.92 | – | – | –
CCCCCN1C=Nc2cccc3nc4c(c1c23)Cn1c-4cc2c(c1=O)COC(=O)[C@]2(O)CC [TP3076] | equipotent | slight reduction | sub-nanomolar range | no apparent significant difference | no apparent significant difference | 2.45 | 2.87 | 1.31 | 1.78 | 1.71 | 3.09 | 6.33 | at most 6% | increased proportionately | 1 | – | 1.26 | not detected | –
CCc1c2c(nc3ccc(O)cc13)-c1cc3c(c(=O)n1C2)COC(=O)[C@]3(O)CC [SN-38] | – | – | – | – | – | – | – | – | – | – | – | – | – | – | – | – | – | – | 1.5

From publication PMC3517777, “Phase I study of TP300 in patients with advanced solid tumors with pharmacokinetic, pharmacogenetic and pharmacodynamic analyses” (BMC Cancer, 2012)
